{"source": "patent US7902254B1", "about": "“Method for treating conditions mediated by PPAR using macelignan” (Newtree Co., Ltd., priority 2005, dated 2011)", "key": {"[1]": {"target": "T1, human PPARγ (Homo sapiens, UniProt P37231)", "T1 construct": "expressed in transfected cells; host or cells: COS-7 monkey kidney cells (ATCC CRL-1651)", "T1 sequence (P37231 176-477 isoform P37231-2)": "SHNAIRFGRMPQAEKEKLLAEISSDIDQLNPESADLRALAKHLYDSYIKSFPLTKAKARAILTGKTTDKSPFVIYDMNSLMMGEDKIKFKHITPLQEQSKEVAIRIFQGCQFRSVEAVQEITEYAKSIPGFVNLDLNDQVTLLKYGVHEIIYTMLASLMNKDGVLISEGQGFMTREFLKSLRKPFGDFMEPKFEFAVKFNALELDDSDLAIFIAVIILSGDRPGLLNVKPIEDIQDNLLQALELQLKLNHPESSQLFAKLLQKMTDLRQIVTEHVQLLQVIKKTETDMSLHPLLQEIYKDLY", "experiment": "PPARγ activation, luciferase reporter in transfected COS-7 cells", "type": "cell-based", "settings": "24 hours", "procedure": "Then, the polynucleotide was cloned between the restriction enzyme sites of BamHI and KpnI of pFA vector (Stratagene, USA). […] RT-PCR was performed by synthesizing cDNA using reverse transcriptase at 42° C. for 60 minutes, and 30 cycles of 1 minute at 95° C., 30 seconds at 54° C. and 2 minutes at 72° C. using Taq polymerase. […] Then, the polynucleotide was cloned between the restriction enzyme sites of XbaI and KpnI of pFA vector (Stratagene, USA)."}, "[2]": {"system": "target genes of PPARγ (LPL, PEPCK)", "experiment": "Expression of target genes of PPARγ in 3T3-L1 pre-adipocytes (RT-PCR)", "type": "cell-based, mouse", "settings": "3T3-L1 cells, 24 hours, then MDI medium two days, vs control", "procedure": "3T3-L1 mouse pre-adipocytes (ATCC CL-173) cultured in a DMEM medium containing 10% FBS were pipetted into a multi-well plate in a cell count of 1×10^6 cells per well, and then further cultured for 5 hours. To the medium of the cultured cells, 10 μM of macelignan was added and then left for 24 hours. Adipocyte differentiation was induced by substituting the medium of the cultured cells with MDI (0.5 mM 3-isobutyl-1-methylxanthine, 0.5 uM dexamethasone, 10 ug/ml insulin) medium (Am. J. Physiol. Cell Physiol., 280: C807-C813, 2001). Cells were collected two days after the substitution of MDI medium, and the total RNA was isolated by using TRIZOL (Invitrogen, USA). The total RNA isolated as described above was determined, and cDNA was synthesized by using reverse transcriptase at 42° C. for 20 minutes with same amount of RNA. The cDNA was subjected to RT-PCR by repeating 30 cycles of 95° C./1 minute, 56° C./30 seconds and 72° C./2 minutes with the following primers and Taq polymerase: primers for LPL amplification (SEQ ID NO: 13([…]) and SEQ ID NO: 14([…])), and primers for PEPCK amplification (SEQ ID NO: 15(CAGGCGGCTGAA GAAGTATGA) and SEQ ID NO: 16([…]))."}, "[3]": {"system": "obesity/diabetes mice (db/db mice)", "experiment": "Effect upon hyperlipidemia and cardiovascular diseases in obesity/diabetes mouse model", "type": "in vivo", "settings": "14 days", "procedure": "To investigate effects of macelignan upon the treatment of hyperlipidemia and cardiovascular diseases, seven mice of 10 week-aged obesity/diabetes mice (db/db mice) were used per test group. To the test groups, macelignan suspended in 0.25% carboxymethyl cellulose was orally administered in an administration dose of 5 mg/kg (body weight), 10 mg/kg (body weight) and 25 mg/kg (body weight), once per day at a predetermined time, for 14 days. As a control, 0.25% carboxymethyl cellulose was orally administered alone to normal mice in the same dose as administered to the test group. As another control, 0.25% carboxymethyl cellulose was orally administered alone to obesity/diabetes mice in the same dose as administered to the test group. As still another control, 10 mg/kg (body weight) of troglitazone was orally administered. Fourteen days after the administration, triglyceride concentration in blood (triglyceride measuring kit, Wako, Japan), free fatty acid concentration in blood (free fatty acid measuring kit, Wako, Japan), total cholesterol content in blood (ASAN T-CHO-Lq Reagents, Asan Pharmaceutical Co. Ltd., Korea), HDL-cholesterol content in blood (ASAN HDL-Cholesterol, Asan Pharmaceutical Co. Ltd., Korea), IL-6 content in blood (IL-6 Quantikine ELISA, R&D systems, USA) and TNF-α content in blood were measured for the test groups and the controls."}}}
{"smiles": "COc1cc(C[C@H](C)[C@H](C)Cc2ccc3c(c2)OCO3)ccc1O", "note": "(single isomer, unassigned) [macelignan]", "values": [{"measurement": "luciferase activity higher than the control (PPARγ)", "setting": "[1]; 25 μM, control 0.01% DMSO", "result": "about 10.4 times"}, {"measurement": "PPARγ activity", "setting": "[1]; 1, 5, 10 and 25 μM, p<0.01 vs control", "result": "increased PPARγ activity in a concentration-dependent manner"}, {"measurement": "mRNA expression of LPL and PEPCK", "setting": "[2]", "result": "significantly increased"}, {"measurement": "Free fatty acid in blood", "setting": "[3]; 5 mg/kg oral", "result": "1.26 ± 0.19", "unit": "mEq/l"}, {"measurement": "HDL-cholesterol in blood", "setting": "[3]; 5 mg/kg oral", "result": "43.5 ± 6.73", "unit": "mg/dL"}, {"measurement": "IL-6 in blood", "setting": "[3]; 5 mg/kg oral", "result": "21.42 ± 11.42", "unit": "pg/mL"}, {"measurement": "TNF-α in blood", "setting": "[3]; 5 mg/kg oral", "result": "36.92 ± 16.27", "unit": "pg/mL"}, {"measurement": "Total cholesterol in blood", "setting": "[3]; 5 mg/kg oral", "result": "119 ± 13.8", "unit": "mg/dL"}, {"measurement": "Triglyceride in blood", "setting": "[3]; 5 mg/kg oral", "result": "98.71 ± 36.62", "unit": "mg/dL"}, {"measurement": "Free fatty acid in blood", "setting": "[3]; 10 mg/kg oral", "result": "1.16 ± 0.31", "unit": "mEq/l"}, {"measurement": "HDL-cholesterol in blood", "setting": "[3]; 10 mg/kg oral", "result": "42.2 ± 7.29", "unit": "mg/dL"}, {"measurement": "IL-6 in blood", "setting": "[3]; 10 mg/kg oral", "result": "12.04 ± 5.47", "unit": "pg/mL"}, {"measurement": "TNF-α in blood", "setting": "[3]; 10 mg/kg oral", "result": "16.41 ± 9.60", "unit": "pg/mL"}, {"measurement": "Total cholesterol in blood", "setting": "[3]; 10 mg/kg oral", "result": "110 ± 15.2", "unit": "mg/dL"}, {"measurement": "Triglyceride in blood", "setting": "[3]; 10 mg/kg oral", "result": "91.71 ± 44.04", "unit": "mg/dL"}, {"measurement": "Free fatty acid in blood", "setting": "[3]; 25 mg/kg oral", "result": "1.14 ± 0.15", "unit": "mEq/l"}, {"measurement": "HDL-cholesterol in blood", "setting": "[3]; 25 mg/kg oral", "result": "46.6 ± 3.89", "unit": "mg/dL"}, {"measurement": "IL-6 in blood", "setting": "[3]; 25 mg/kg oral", "result": "4.86 ± 2.46", "unit": "pg/mL"}, {"measurement": "TNF-α in blood", "setting": "[3]; 25 mg/kg oral", "result": "27.54 ± 9.77", "unit": "pg/mL"}, {"measurement": "Total cholesterol in blood", "setting": "[3]; 25 mg/kg oral", "result": "110 ± 23.7", "unit": "mg/dL"}, {"measurement": "Triglyceride in blood", "setting": "[3]; 25 mg/kg oral", "result": "84.00 ± 31.24", "unit": "mg/dL"}]}
